From BindingDB's records for doi:10.1016/j.bmc.2010.06.025 (Wayne State University, 2010)

Legend:
[1] = molecular target: D(2) dopamine receptor (Rattus norvegicus, UniProt P61169); assay: Displacement of [3H]spiperone from rat D2 receptor expressed in HEK293 cells
[2] = molecular target: D(3) dopamine receptor (Rattus norvegicus, UniProt P19020); assay: Displacement of [3H]spiperone from rat D3 receptor expressed in HEK293 cells
Chain of D(3) dopamine receptor (P19020 whole entry): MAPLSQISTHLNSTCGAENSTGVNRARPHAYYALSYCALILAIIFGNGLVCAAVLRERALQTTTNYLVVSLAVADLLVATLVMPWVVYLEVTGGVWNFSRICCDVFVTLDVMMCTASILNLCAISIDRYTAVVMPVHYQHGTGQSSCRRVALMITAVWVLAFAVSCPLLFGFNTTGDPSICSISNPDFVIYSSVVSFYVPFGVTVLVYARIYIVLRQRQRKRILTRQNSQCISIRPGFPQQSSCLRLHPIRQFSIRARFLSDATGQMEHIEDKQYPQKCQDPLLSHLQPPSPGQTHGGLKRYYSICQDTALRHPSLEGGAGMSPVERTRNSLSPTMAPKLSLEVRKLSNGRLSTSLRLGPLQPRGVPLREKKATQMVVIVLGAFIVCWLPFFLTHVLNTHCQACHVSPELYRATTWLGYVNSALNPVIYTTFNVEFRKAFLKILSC

Chain of D(2) dopamine receptor (P61169 whole entry): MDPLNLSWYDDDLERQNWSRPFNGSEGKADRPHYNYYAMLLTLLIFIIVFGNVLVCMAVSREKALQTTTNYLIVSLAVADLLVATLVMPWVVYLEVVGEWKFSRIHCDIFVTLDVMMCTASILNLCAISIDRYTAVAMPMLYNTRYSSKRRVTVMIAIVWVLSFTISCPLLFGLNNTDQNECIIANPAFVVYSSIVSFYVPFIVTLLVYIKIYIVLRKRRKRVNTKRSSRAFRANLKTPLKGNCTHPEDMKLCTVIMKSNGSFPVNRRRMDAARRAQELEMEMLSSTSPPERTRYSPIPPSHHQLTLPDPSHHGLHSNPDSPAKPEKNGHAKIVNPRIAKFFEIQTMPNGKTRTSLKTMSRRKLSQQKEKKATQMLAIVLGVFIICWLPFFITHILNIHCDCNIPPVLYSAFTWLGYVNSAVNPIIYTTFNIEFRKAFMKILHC

Ki [1]: 399 nM
Ki [2]: 16.2 nM
SMILES: CCCN(CCN1CCN(c2ccc(-c3ccncc3)cc2)CC1)C1CCc2ccc(O)cc2C1 (stereo not drawn) [(+)-7-(propyl(2-(4-(4-(pyridin-4-yl)-phenyl)piperazin-1-yl)ethyl)amino)-5,6,7,8-tetrahydronaphthalen-2-ol]
